Reference: publication PMC10205660 (Chemistry (Weinheim an der Bergstrasse, Germany), 2023)

Columns and labels:
MCF7 (breast cancer) = experiment: Antiproliferative activity, MCF7; type: cell-based; conditions: read-out: IC50 values MCF7; MCF7
K562 (leukemia) = experiment: Antiproliferative activity, K562; type: cell-based; conditions: read-out: IC50 values K562; K562
A549 (lung cancer) = experiment: Antiproliferative activity, A549; type: cell-based; conditions: read-out: IC50 values A549; A549
HEK293 = conditions: read-out: IC50 against normal cell line HEK293; cited from earlier work
MRC5 = conditions: read-out: IC50 against normal cell line MRC5; cited from earlier work
[1] = system: Hsp90-dependent client proteins (pAkt, Cyclin D1, GLUT1), Hsp70, Hsp90 in MCF7 cells; conditions: MCF7, 48-hour incubation; cited from earlier work

In the case of CCCC(O)C(C)C(=O)NC/C=C\CC(C)C(O)C(C)C1C/C=C\CC(C)C(O)Cc2cc(OC)cc(O)c2C(=O)O1 (stereo not drawn) [Compound 1, Cruentaren A, reference compound], the IC50 (MCF7 (breast cancer)) is reported as 4.67 nM, the IC50 (K562 (leukemia)) is reported as 1.5 nM and the IC50 (A549 (lung cancer)) is reported as 0.75 nM. For the same compound, the IC50 (HEK293) was greater than 500 nM, the IC50 (MRC5) was greater than 500 nM and the “degradation of Hsp90-dependent client proteins” value [1] was “induced the degradation”.
